Data as given in article PMC9879403, “Oncolytic strategy using new bifunctional HDACs/BRD4 inhibitors against virus-associated lymphomas” (PLOS Pathogens, 2023).

What was measured:
BCP-1 = test: WST-1 cytotoxicity assay, BCP-1 (KSHV+ PEL); assay type: cell-based; settings: BCP-1, 72 h, read-out: CC50, BCP-1
Text: (§1) Fig 2 Identification of newly synthesized dual inhibitors with anti-PEL activities. (A) The binding mode of (+)-JQ1 with BRD4^BD1 (PDB: 3MXF). BRD4^BD1 is shown as hot pink cartoon with gray surface. Asn140 in BRD4^BD1 is shown as sticks and colored in following pattern: atom C hot pink, atom N dark blue, and atom O yellow. (+)-JQ1 is shown as sticks and colored in following patten: atom C hot pink, atom N dark blue, atom O yellow, atom S golden, and atom Cl green. The solvent exposed region (SEG) of (+)-JQ1 are indicated with white arrow. (B) The binding modes of SAHA and entinostat with HDAC2 (PDB: 3MAX). HDAC2 is shown as blue cartoon with gray surface. Asp181 and His183 in HDAC2 are shown as sticks and colored in following pattern: atom C blue, atom N dark blue, and atom O yellow. The catalytic zinc ion in the active site of HDAC2 is shown as black sphere. SAHA is shown as sticks and colored in following pattern: atom C green, atom N dark blue, and atom O yellow. Entinostat is shown as sticks and colored in following pattern: atom C hot pink, atom N dark blue, and atom O yellow. The SEG of SAHA or entinostat is indicated with white arrow. Hydrogen bonds (H-bonds) are presented by red dash lines. (C) The HDACs/BRD4 dual inhibitors 002-011 were designed by fusing the key pharmacophores of (+)-JQ1 (pink) and HDAC inhibitors (blue), SAHA or entinostat, via various chemical linkers (green). (D) Anti-PEL activities of the new compounds. Five KSHV positive and two KSHV negative lymphoma cell lines were treated with indicated concentrations of these compounds for 72 h. Then the cytotoxicity was determined using the WST-1 assay. (+)-JQ1, SAHA and entinostat were used for the comparisons as single inhibitors. The CC50 for each compound was calculated using GraphPad Prism 5.0 software. Error bars represent S.D. for 3 independent experiments.
(§2) Fig 4 Identification of anti-PEL activities for compound 009 stereoisomers. (A) The chemical structures of anti-HDACs/BRD4 bifunctional molecules 009P1 and 009P2, as well as anti-HDACs or anti-BRD4 mono-functional molecules 009N1, 009N2, 009N3, and 009N4. (B-C) Four KSHV+ PEL cell lines were treated with indicated concentrations of 009P1, 009P2 or 009N1-N4 for 72 h, then the cytotoxicity was determined using the WST-1 assay. (D-I) BCBL-1 cells were treated with these compounds at the respective 2× CC50 for 24 h, then cell cycle (D-F) and apoptosis (G-I) were measured by flow cytometry analysis. Error bars represent S.D. for 3 independent experiments, ** = p<0.01 (vs vehicle control).
(§3) The cell viability following treatment with compounds was assessed by the WST-1 assay (Roche, Indianapolis, Indiana, USA) according to the manufacturer’s protocol as described previously. The absorbance signal was measured using a microplate reader (Biotek Synergy 2). The 50% cytotoxic concentration (CC50) for each compound was calculated from these dose-response curves using the software GraphPad Prism v5.0. Data were normalized as the fold change compared to the DMSO control.

BCBL-1 = test: WST-1 cytotoxicity assay, BCBL-1 (KSHV+ PEL); assay type: cell-based; settings: BCBL1, 72 h, read-out: CC50, BCBL-1
Text: as §1, §2, §3

JSC-1 = test: WST-1 cytotoxicity assay, JSC-1 (KSHV+ PEL); assay type: cell-based; settings: 72 h, read-out: CC50, JSC-1
Text: as §1, §2, §3

BRD4 = BRD4 signaling by Western blot (c-Myc expression); assay type: cell-based; settings: BCBL-1 cells, 48 h, Western blot
BC-1 = test: WST-1 cytotoxicity assay, BC-1 (KSHV+ PEL); assay type: cell-based; settings: Homo sapiens, BC1, 72 h, read-out: CC50, BC-1
Text: as §1, §2, §3

HDACs = HDACs signaling by Western blot (H3K9Ac, H4K9Ac, Acetyl-tubulin); assay type: cell-based; settings: BCBL-1 cells, 48 h, Western blot
HUVEC = test: WST-1 cytotoxicity on primary cells HUVEC; assay type: cell-based, human
Procedure: as §3
Supplementary file ppat.1011089.s006.tif: S5 Fig Cytotoxicity of tested compounds on HUVEC. The primary cells HUVEC were treated with indicated concentrations of compounds for 72 h, then cell viability was assessed using the WST-1 assay. The CC50 for each compound was calculated from the dose-response curves using Graphpad Prism 5.0 software. Data was normalized as the fold change compared to the DMSO control. (TIF) Click here for additional data file.

BCBL-1 cells [1] = test: Cell death regulatory proteins by Western blot; assay type: cell-based; settings: 50 nM, 48 h
KSHV [2] = assay type: cell-based
BCBL-1 cells [3] = test: RNA-Sequencing of compound-treated vs vehicle-treated cells; assay type: cell-based, human
Procedure: RNA-Sequencing (RNA-Seq) of triplicate samples was performed by BGI Americas Corporation using their unique DNBSEQ sequencing technology. The completed RNA-Sequencing data was submitted to NCBI Sequence Read Archive (SRA# # PRJNA813422). Raw sequencing reads were analyzed using the RSEM software (version 1.3.0; human GRCh38 genome sequence and annotation) and gene expression was quantified as previously described. The EBSeq software was utilized to call differentially expressed genes that were statistically significant using a false discovery rate (FDR) less than 0.05. Differentially expressed genes between compounds- and vehicle-treated PEL cells were used as input for the GO enrichment analyses.

KSHV [4] = test: Viral DNA levels in PEL cells by qPCR; assay type: cell-based
BCBL-1 cells [5] = test: PEL xenograft model (BCBL-1 cells i.p.); settings: 20 mg/kg
Procedure: (A) Plasma concentrations of (+)-JQ1, SAHA, or 009P1 after a single administration of 50 mg per kg body (i.p. injection) were presented as mean ± SD (n = 3 mice per time point). (B-E) NOD/SCID mice were injected i.p. with BCBL-1 cells. 72 h later, the compounds or vehicle were administered i.p. as described in the Methods, and weights were recorded weekly. At the end of the treatment period, the splenic tissues were collected from the vehicle or compound treated mice, compared and processed with the H&E and IHC staining. (F) Plasma concentrations of 009P1 after a single administration of 50 mg per kg body (oral gavage) were presented as mean ± SD (n = 3 mice per time point). (G-I) NOD/SCID mice were injected i.p. with BCBL-1 cells. 72 h later, the compounds or vehicle were administered orally as described in the Methods, and weights were recorded weekly.
In all NOD/SCID mice, 6–8-week-old, male (Jackson Laboratory, Ellsworth, Maine, USA), 1 × 10^7 BCBL-1 cells in 200 μL RMPI-1640 without FBS were injected intraperitoneally and then mice were randomized into treatment groups of 6 mice as described previously. The tested compounds or vehicle was administered initially at 72 h after BCBL-1 injections, and continued once daily, 2 days per week for 3 weeks. Weights were recorded weekly as a surrogate measure of tumor progression. At the end of experiment, the spleens of mice were excised for immunoblots and immunohistochemical analyses.
Formalin-fixed, paraffin-embedded tissues were microtome-sectioned to a thickness of 4 μm and placed on electromagnetically charged slides. Immunohistochemistry was performed as described previously, and the c-Myc and H3K9Ac antibodies were purchased from Abcam. Images were collected using an Olympus BX61 microscope equipped with a high resolution DP72 camera and CellSense image capture software.

[6] = gene expression, treated vs vehicle BCBL-1 cells

COC(=O)c1ccc([C@@H](C)OC(=O)C[C@@H]2N=C(c3ccc(Cl)cc3)c3c(sc(C)c3C)-n3c(C)nnc32)cc1 [009N3, methyl 4-((R)-1-(2-((S)-4-(4-chlorophenyl)-2,3,9-trimethyl-6H-thieno[3,2-f][1,2,4]triazolo[4,3-a][1,4]diazepin-6-yl)acetoxy)ethyl)benzoate]
CC50 (BCP-1): 2430 nM
CC50 (BCBL-1): 670 nM
CC50 (JSC-1): 9840 nM
c-Myc expression (BRD4): drastically downregulated
CC50 (BC-1): 1470 nM

Cc1sc2c(c1C)C(c1ccc(Cl)cc1)=N[C@@H](CC(=O)O[C@@H](C)c1ccc(C(=O)Nc3ccccc3N)cc1)c1nnc(C)n1-2 [009P2, (S)-1-(4-((2-aminophenyl)carbamoyl)phenyl)ethyl 2-((S)-4-(4-chlorophenyl)-2,3,9-trimethyl-6H-thieno[3,2-f][1,2,4]triazolo[4,3-a][1,4]diazepin-6-yl)acetate]
H3K9Ac, H4K9Ac and Acetyl-tubulin protein levels (HDACs): increased
Cytotoxicity in primary cells HUVEC (HUVEC): much less cytotoxicity
Expression of p-RB, cleaved-caspase 3 and cleaved-PARP (BCBL-1 cells [1]): strongly affected
Expression of viral genes (LANA, RTA, ORF26) (KSHV [2]): significantly increased
CC50 (BCP-1): 28 nM
Genes differentially expressed between 009P1- and 009P2-treated PEL cells (BCBL-1 cells [3]; BCBL-1, ≥ 2 fold-change and FDR < 0.05): 715 genes
Ratio, ARC (BCBL-1 cells [3]; [6]): 17.91
Ratio, ARRDC3 (BCBL-1 cells [3]; [6]): 41.32
Ratio, ATF3 (BCBL-1 cells [3]; [6]): 22.98
Ratio, CCDC169-SOHLH2 (BCBL-1 cells [3]; [6]): 0.1511
Ratio, CD28 (BCBL-1 cells [3]; [6]): 0.1264
Ratio, CD44 (BCBL-1 cells [3]; [6]): 0.1695
Ratio, CFAP58 (BCBL-1 cells [3]; [6]): 0.2474
Ratio, CHAC1 (BCBL-1 cells [3]; [6]): 9.244
Ratio, CSF1R (BCBL-1 cells [3]; [6]): 42.35
Ratio, DDIT3 (BCBL-1 cells [3]; [6]): 16.53
Ratio, DDIT4 (BCBL-1 cells [3]; [6]): 24.97
Ratio, FOS (BCBL-1 cells [3]; [6]): 77
Ratio, IFNG (BCBL-1 cells [3]; [6]): 0.1337
Ratio, IRF7 (BCBL-1 cells [3]; [6]): 28.87
Ratio, LGALS9B (BCBL-1 cells [3]; [6]): 0.03508
Ratio, MCM5 (BCBL-1 cells [3]; [6]): 0.1
Ratio, PRKCB (BCBL-1 cells [3]; [6]): 0.03195
Ratio, RP11-707M3.3 (BCBL-1 cells [3]; [6]): 0.2332
Ratio, SOCS3 (BCBL-1 cells [3]; [6]): 41.85
Ratio, SPINT1 (BCBL-1 cells [3]; [6]): 0.1311
CC50 (BCBL-1): 3.3 nM
Viral DNA levels (KSHV [4]): slightly increased
CC50 (JSC-1): 110 nM
PEL tumor progression (ascites formation, spleen enlargement) (BCBL-1 cells [5]; i.p.): dramatically suppressed PEL tumor progression
Tumor infiltration into the spleen (H&E) (BCBL-1 cells [5]; i.p.): only diffuse small tumor nodules
Visible toxicity in mice (abnormal weight loss) (BCBL-1 cells [5]; i.p.): not observed
Tumor burden in mice (ascites formation, spleen enlargement) (BCBL-1 cells [5]; oral administration): effectively repressed tumor burden
c-Myc expression (BRD4): decreased
CC50 (BC-1): 5.5 nM

Cc1sc2c(c1C)C(c1ccc(Cl)cc1)=N[C@H](CC(=O)O[C@H](C)c1ccc(C(=O)Nc3ccccc3N)cc1)c1nnc(C)n1-2 [009N1, (R)-1-(4-((2-aminophenyl)carbamoyl)phenyl)ethyl 2-((R)-4-(4-chlorophenyl)-2,3,9-trimethyl-6H-thieno[3,2-f][1,2,4]triazolo[4,3-a][1,4]diazepin-6-yl)acetate]
H3K9Ac, H4K9Ac and Acetyl-tubulin protein levels (HDACs): upregulated
CC50 (BCP-1): > 10000 nM
CC50 (BCBL-1): 7560 nM
CC50 (JSC-1): > 10000 nM
c-Myc expression (BRD4): subtle effect
CC50 (BC-1): > 10000 nM
